Reference: publication PMC7660103, “Discovery of Novel 3-Cyanopyridines as Survivin Modulators and Apoptosis Inducers” (Molecules, 2020)

Key:
[1] = test system: breast cancer (MDA-MB-231) cells; test: SRB cytotoxicity assay, MDA-MB-231; assay type: cell-based, human; conditions: for IC50: Homo sapiens, MDA-MB-231, 72 h, SRB assay, 72 h, mean ± SD of three experiments; for Selectivity Index MDA-MB-231: SI = IC50 on WI-38/IC50 on MDA-MB-231
Procedure: (§1) In the present work, sulforhodamine B (SRB) colorimetric assay was done to evaluate the cytotoxic activity of the synthesized 3-cyano pyridines 4a–4e, 5a–5e, and 6a–6e on three human cancer cell lines: prostate carcinoma (PC-3), breast cancer (MDA-MB-231) and hepatocellular carcinoma (HepG2) cell lines. 5-FU was used as a standard drug for comparison.
(§2) Human cancer cells were obtained from Nawah Scientific Inc. (Mokatam, Cairo, Egypt). Cells were maintained in DMEM media containing […] streptomycin, 100 units/mL penicillin, and 10% heat-inactivated fetal bovine serum in humified, 5% (v/v) CO2 atmosphere at 37 °C.
(§3) Cell viability was estimated using the SRB assay. Aliquots of 100 µL cell suspension (5 × 10^3 cells) in 96-well plates were incubated in complete media for 24 h. Cells were treated with a second aliquot of 100 µL media containing various concentrations of the tested compounds (0.01, 0.1, 1, 10, and 100 μM). After 72 h, cells were fixed by replacing media with 15 µL of 10% TCA and then incubated at 4 °C for 1 h. After that, TCA solution was removed, and the cells were washed 5 times with distilled water. Aliquots of 70 µL SRB solution (0.4% w/v) were added and incubated in a dark place at room temperature for 10 min. Plates were washed 3 times with 1% acetic acid and allowed to air dry overnight. Then, 150 µL of TRIS (10 mM) was added to dissolve protein-bound SRB stain. The absorbance was measured at 540 nm using BMG LABTECH®-FLUO star Omega microplate reader (Ortenberg, Germany).

[2] = test system: hepatocellular carcinoma (HepG2) cells; test: SRB cytotoxicity assay, HepG2; assay type: cell-based, human; conditions: for IC50: Homo sapiens, HepG2, 72 h, SRB assay, 72 h, mean ± SD of three experiments; for Selectivity Index HepG2: SI = IC50 on WI-38/IC50 on HepG2
Procedure: as §1, §2, §3

normal cell line WI-38 = test: SRB cytotoxicity assay, normal cell line WI-38; assay type: cell-based; conditions: Homo sapiens, WI-38, mean ± SD of three experiments
Procedure: The cytotoxicity of the newly synthesized compounds on the normal cell line WI-38 was also evaluated in order to examine the safety of these compounds.
as §3

MDA-MB-231 cells = test: Cell cycle analysis by flow cytometry; assay type: cell-based, human; conditions: MDA-MB-231, IC50 concentration, 24 h; for %Pre-G1: control 1.87; for %G2-M: control 4.38; for %S: control 35.21; for %G0-G1: control 60.41
From the text: Survivin has been recognized to play dual roles in stimulating cell-cycle progression and in obstructing apoptosis. Additionally, survivin is known to be expressed mainly in the G2/M phase of the cell cycle. Therefore, it was significant to examine the ability of our promising compounds 5c and 5e to induce cell cycle arrest. […] As shown in Figure 2 and Table 3, both 5c and 5e caused an increase in the number of cells in the G2/M phase by 4.92 and 5.74 folds, respectively, compared to the control cells. At the same time, a decrease in the DNA content in the G0/G1 phase, and a slight decrease in the S phase cells were observed. […] Supplementary Material Figures S37–S39 contain the cell cycle analysis for control and compounds 5c and 5e.
After that, cells were collected by trypsin and washed in saline buffered with phosphate. Then, they were fixed using ice-cold alcohol. Afterwards, cells were stained by a Cycle TESTTM PLUS DNA Reagent Kit (BD Biosciences, San Jose, CA, USA) according to the manufacturer’s directions. The distribution of the cells in the cell cycle was calculated using a FACS Calibur flow cytometer (BD Biosciences, San Jose, CA, USA).

Livin = test: Western blotting of Livin in MDA-MB-231 cells; assay type: cell-based, human; conditions: for Livin protein level (Western blot, in words): MDA-MB-231, 1, 5 and 10 µM
Procedure: (§4) The ability of the 2-oxo-3-cyano pyridines 5c and 5e to cause an inhibition of survivin was evaluated by the use of Western blotting analysis in MDA-MB-231cells treated with different concentrations of both compounds (1, 5, and 10 µM). […] Furthermore, to test the effect of these compounds on some other IAP family proteins, the Western plot of Livin, XIAP, and C-IAP1 proteins was performed (Figure 6). […] The Supplementary Material Figures S40 and S41 contain western blotting analysis for 5c and 5e.
(§5) MDA-MB-231 cancer cells were incubated with 5c and 5e at different concentrations (1, 5, and 10 µM) for 48 h. Afterwards, the medium was detached, and the cells were washed using PBS (10 mmol/L, pH 7.4). Then, the cells were incubated on cold lysis buffer (50 mmol/L Tris–HCl, 150 mmol/L NaCl, 1 mmol/L EGTA, 1 mmol/L EDTA, 20 mmol/L NaF, […], 0.5% NP40, 1% Triton X-100, 1 mmol/L PMSF (pH 7.4)) and a freshly added cocktail inhibitor (Inhibitor Cocktail Set III, Calbiochem, La Jolla, CA) above ice for 30 min. Then, MDA-MB-231 cells were collected and centrifuged at 12,000× g for 15 min.
(§6) XIAp, Survivin, Livin, and cIAP1anti-mouse, anti-rabbit secondary antibodies, and GAPDH were purchased from Sigma-Aldrich, whereas the gel was obtained from BioRad. Polyacrylamide gels were moved to a nitrocellulose membrane in order to block in buffer (7% nonfat dry milk/1% Tween 20; in 20 mmol/L TBS (pH 7.6)) for 1 h and incubated for 2 h at room temperature with the suitable primary antibody in blocking buffer or overnight at 4 °C; then, they were incubated with secondary antibody HRP conjugate. Finally, the blots analysis was done using the imaging system.

XIAP = test: Western blotting of XIAP in MDA-MB-231 cells; assay type: cell-based, human; conditions: for XIAP protein level (Western blot, in words): MDA-MB-231, 1, 5 and 10 µM
Procedure: as §4, §5, §6

[3] = cytotoxicity compared with 5-FU

Row | SMILES | IC50 [1] [µM] | Selectivity Index MDA-MB-231 [1] | IC50 [2] [µM] | Selectivity Index HepG2 [2] | IC50 (normal cell line WI-38) [µM] | increase in the number of cells in the G2/M phase compared to control (MDA-MB-231 cells) [fold] | %Pre-G1 (MDA-MB-231 cells) [%] | %G2-M (MDA-MB-231 cells) [%] | %S (MDA-MB-231 cells) [%] | %G0-G1 (MDA-MB-231 cells) [%] | LIVIN band % (Livin; MDA-MB-231, 1µM) [%] | LIVIN band Area (Livin; MDA-MB-231, 1µM) | LIVIN band Height (Livin; MDA-MB-231, 1µM) | LIVIN band Width (Livin; MDA-MB-231, 1µM) | LIVIN band % (Livin; MDA-MB-231, 5µM) [%] | LIVIN band Area (Livin; MDA-MB-231, 5µM) | LIVIN band Height (Livin; MDA-MB-231, 5µM) | LIVIN band Width (Livin; MDA-MB-231, 5µM) | LIVIN band % (Livin; MDA-MB-231, 10µM) [%] | LIVIN band Area (Livin; MDA-MB-231, 10µM) | other results
1 | N#Cc1c(-c2ccc(Cl)cc2)cc(-c2ccc(OCc3ccc(F)cc3)cc2)[nH]c1=O [Compound 5c, 4-(4-Chlorophenyl)-6-(4-((4-fluorobenzyl)oxy)phenyl)-2-oxo-1,2-dihydropyridine-3-carbonitrile] | 20 ± 0.17 | 4.56 | 15 ± 0.64 | 6.08 | 91.29 ± 0.47 | 4.92 | 16.32 | 21.57 | 33.16 | 45.27 | 20.2 | 1305 | 134 | 22 | 13.4 | 793 | 84 | 17 | 9.1 | 514 | LIVIN band Height (Livin; MDA-MB-231, 10µM): 66; LIVIN band Width (Livin; MDA-MB-231, 10µM): 17; Livin protein level (Western blot, in words) (Livin): decreased the levels of these proteins; XIAP band % (XIAP; MDA-MB-231, 1µM): 16.3%; XIAP band Area (XIAP; MDA-MB-231, 1µM): 970; XIAP band Height (XIAP; MDA-MB-231, 1µM): 99; XIAP band Width (XIAP; MDA-MB-231, 1µM): 22; XIAP band % (XIAP; MDA-MB-231, 5µM): 15.1%; XIAP band Area (XIAP; MDA-MB-231, 5µM): 921; XIAP band Height (XIAP; MDA-MB-231, 5µM): 88; XIAP band Width (XIAP; MDA-MB-231, 5µM): 19; XIAP band % (XIAP; MDA-MB-231, 10µM): 14.2%; XIAP band Area (XIAP; MDA-MB-231, 10µM): 853; XIAP band Height (XIAP; MDA-MB-231, 10µM): 82; XIAP band Width (XIAP; MDA-MB-231, 10µM): 19; XIAP protein level (Western blot, in words) (XIAP): decreased the levels of these proteins
2 | COc1ccc(-c2cc(-c3ccc(OCc4ccc(F)cc4)cc3)[nH]c(=O)c2C#N)cc1 [Compound 5e, 6-(4-((4-Fluorobenzyl)oxy)phenyl)-4-(4-methoxyphenyl)-2-oxo-1,2-dihydropyridine-3-carbonitrile] | 3.59 ± 0.42 | 28.57 | 6.01 ± 0.53 | 17.06 | 102.6 ± 0.81 | 5.74 | 19.47 | 25.16 | 32.48 | 42.36 | 25.7 | 2085 | 136 | 33 | 16.6 | 907 | 68 | 27 | 9.8 | 330 | activity relative to 5-FU, MDA-MB-231 [1, 3]: 2.6 fold; activity relative to 5-FU, HepG2 [2, 3]: comparable to 5-FU; LIVIN band Height (Livin; MDA-MB-231, 10µM): 44; LIVIN band Width (Livin; MDA-MB-231, 10µM): 14; Livin protein level (Western blot, in words) (Livin): decreased the levels of these proteins; XIAP band % (XIAP; MDA-MB-231, 1µM): 15.4%; XIAP band Area (XIAP; MDA-MB-231, 1µM): 841; XIAP band Height (XIAP; MDA-MB-231, 1µM): 80; XIAP band Width (XIAP; MDA-MB-231, 1µM): 22; XIAP band % (XIAP; MDA-MB-231, 5µM): 8.6%; XIAP band Area (XIAP; MDA-MB-231, 5µM): 287; XIAP band Height (XIAP; MDA-MB-231, 5µM): 41; XIAP band Width (XIAP; MDA-MB-231, 5µM): 17; XIAP band % (XIAP; MDA-MB-231, 10µM): 4.7%; XIAP band Area (XIAP; MDA-MB-231, 10µM): 260; XIAP band Height (XIAP; MDA-MB-231, 10µM): 28; XIAP band Width (XIAP; MDA-MB-231, 10µM): 13; XIAP protein level (Western blot, in words) (XIAP): decreased the levels of these proteins
